Drawing on ChEMBL document CHEMBL1135051, “N-arylalkylpiperidines as high-affinity sigma-1 and sigma-2 receptor ligands: phenylpropylamines as potential leads for selective sigma-2 agents” (Bioorg Med Chem Lett, 2002), this text covers Ki for ten molecules.

The target of experiment [1] is Sigma non-opioid intracellular receptor 1 (Rattus norvegicus, UniProt Q9R0C9). The experiment is described as follows: Binding affinity for sigma-1 receptor by displacing [3H]-(+) pentazocine.
The target of another experiment is Sigma 2 receptor. Nature of the experiment: Binding affinity for sigma-2 receptor by displacing [3H]DTG in presence of dextrallorphan. Also noted: species or system Rattus norvegicus.

Sequence of Sigma non-opioid intracellular receptor 1 (Q9R0C9 whole entry): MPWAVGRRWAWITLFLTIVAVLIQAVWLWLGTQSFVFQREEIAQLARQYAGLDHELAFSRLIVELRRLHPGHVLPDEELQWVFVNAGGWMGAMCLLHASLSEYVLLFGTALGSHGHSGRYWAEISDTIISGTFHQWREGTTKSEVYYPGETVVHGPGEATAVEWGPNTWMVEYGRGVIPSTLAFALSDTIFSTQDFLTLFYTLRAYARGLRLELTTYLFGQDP

For `c1ccc(CCN2CCN(c3ccccn3)CC2)cc1`, the Ki – broadly, the equilibrium dissociation constant of an inhibitor or competing ligand from its target – in experiment [1] stood at 0.326 µM; on Sigma 2 receptor, 0.119 µM.
The corresponding values for `CC1CCCN(CCc2ccccc2)C1` (stereo not given) are 0.00415 µM and 0.0844 µM.
Regarding `c1ccc(CCCN2CCN(c3ccccn3)CC2)cc1`, the Ki amounted to 0.0829 µM in experiment [1] and 0.00491 µM on Sigma 2 receptor.
Take `c1ccc(CCCN2CCc3ccccc3C2)cc1`: the Ki in experiment [1] turned out to be 0.0139 µM; at Sigma 2 receptor, 0.0142 µM.
As to `c1ccc(CCN2CCc3ccccc3C2)cc1`, the figures for the Ki (in experiment [1]; at Sigma 2 receptor) were 0.0059 µM and 0.0573 µM, respectively.
As to `CC1CCCN(CCCc2ccccc2)C1` (stereo not given), the Ki in experiment [1] was 0.00525 µM; on Sigma 2 receptor it was 0.00661 µM.
Regarding `c1ccc(CCCN2CCCCC2)cc1`, the inhibitory constant (Ki) in experiment [1] was determined as 0.143 µM; at Sigma 2 receptor, 0.025 µM.
Take `CC1CCN(CCc2ccccc2)CC1`: the results for the Ki (in experiment [1]; at Sigma 2 receptor) were 0.0209 µM and 0.0333 µM, respectively.
As for `CC1CCN(CCCc2ccccc2)CC1`, the figures for the inhibition constant (Ki) (in experiment [1]; at Sigma 2 receptor) were 0.00335 µM and 0.0121 µM, respectively.
As for `c1ccc(CCN2CCCCC2)cc1` [1-PHENETHYLPIPERIDINE], the results for the Ki (in experiment [1]; on Sigma 2 receptor) were 0.0885 µM and 0.112 µM, respectively.
